# Literature values as cited in patent publication US8476252B2, “Pharmaceutical emulsion compositions comprising progestogen” (Besins Healthcare Luxembourg SARL, priority 2010, dated 2013).
# Tested on: TBI patients
# Details: Xiao et al 2008, Wright et al 2007
compound,measurement,setting,value
"CC(=O)[C@H]1CC[C@H]2[C@@H]3CCC4=CC(=O)CC[C@]4(C)[C@H]3CC[C@]12C [progesterone, pregn-4-ene-3,20-dione]",Safety and tolerability,TBI patients,safe and well tolerated
same,Mortality,administration of progesterone to TBI patients,decreased mortality
